In patent US20220073883A1, “COMPOSITIONS AND METHODS FOR GENERATION OF HEART FIELD-SPECIFIC PROGENITOR CELLS” (The Johns Hopkins University, priority 2018, published 2022):

Key:
Type in all cases: cell-based, mouse
[1] = test system: ESC-derived cardiac spheroids; assay: qPCR of FHF (tbx5, hcn4) and SHF (tbx1, fgf10) markers in treated spheroids; conditions: Bmp4 (1.25 ng/ml) alone
Method: To investigate the crosstalk between Bmp and Wnt signals, the spheroids were treated with Bmp4 and Wnts in combinations and analyzed expression levels of FHF (tbx5, hcn4) and SHF (tbx1, fgf10) markers.
(§1) Mouse ESCs and human iPSCs were maintained and differentiated as previously described^5, 43, 68 Briefly, mESCs were maintained on gelatin-coated dishes in maintenance medium (Glasgow minimum essential medium supplemented with 10% fetal bovine serum and […] Chir99021 and 1 μM PD98059 or 1000 U/ml ESGRO (Millipore, Billerica, Mass.), Glutamax, sodium pyruvate, MEM non-essential amino acids (Thermo Fisher Scientific). For spheroid formation and differentiation, mouse ESCs were plated in IMDM/Ham's F12 (Cellgro) (3:1) supplemented with N2, B27, penicillin/streptomycin, 2 mM GlutaMAX, 0.05% BSA, 5 ng/ml L-ascorbic acid (Sigma-Aldrich) and α-monothioglycerol (MTG; Sigma-Aldrich) at a final density of 100,000 cells/ml to allow spheroid formation. After 48 h spheroids were collected and transferred to ultra-low attachment plastic surface and induced for 40 hours with Activin A, Bmp4, Wnt3A, Wnt5A, Wnt11 (R&D Systems) alone or in combination. Human iPSCs were maintained in Geltrex-coated T25 flasks using Essential 8 medium. For spheroid formation and differentiation, hiPSCs were plated in RPMI plus B27 minus insulin with Bmp4 and CHIR99021 and incubated for 48 h. After 48 h media was changed to RPMI plus B27 minus insulin. The hiPSC line used in this study was developed by Dr. Linzhao Cheng, the Johns Hopkins University, and had was generated from a de-identified patient using an approved IRB protocol.
RNA isolation was performed using either RNeasy Micro Kit (Cat #74004, Qiagen) or […]® PicoPure® RNA Isolation Kit following the manufacturer's instructions, and cDNA was generated using the high-capacity cDNA reverse transcription kit (Applied Biosystems). qPCR reactions were performed using the Taqman (Applied Biosystems) or Sybr Select qPCR mix (Thermo Fisher) with indicated primers. Gene expression levels were normalized to Gapdh. For the clonal cell-fate analysis, single Isl1-Cre RFP+, Cxcr4− and Isl1-Cre RFP^+, Cxcr4^+ cells were sorted at day 5.5 into 384-well plates and allowed to grow and differentiate for 7 days. […] RNA was isolated from 24 wells with colonies from Cxcr4− and Cxcr4+ sorted cells, respectively. Ct values<30 were considered positive. All samples were also analyzed for gapdh to exclude false-positive results.

[2] = test system: ESC-derived cardiac spheroids; assay: cardiogenesis: cTnT+ cardiomyocytes in cardiac spheroids at day 9 (flow cytometry)
Description: Next, an embryonic stem cell (ESC) line (ESCHcn4-GFP; Tbx1-Cre Ai9) was established from the mice to determine if heart field specification can be recapitulated in a PSC system. It was hypothesized that a 3D multicellular system would better resemble heart field development in vivo, as early development is a highly dynamic process that involves tissue-tissue interactions between multiple cell types. Since CPCs are specified during mid-late gastrulation 7, 8, multicellular 3D spheroids were generated with the PSCs and treated them with various concentrations of Activin A and Bmp4 to determine whether induction of the early mesoderm influences heart field specification (FIGS. 1C and 1D). After 5 days of differentiation (120 h), GFP+ and RFP+ cells started to appear in the spheroids. The spheroids were analyzed for GFP+ and RFP+ cells by fluorescent activated cell sorting (FACS) at day 5.5 (132 h). […] The double positive GFP+/RFP+ cells correlated with the total number of GFP+ and RFP+ cells (FIG. 6J) and were sporadically interspersed within the GFP+ domain (FIG. 6K).
The overall effects on cardiogenesis were evaluated by analyzing the number of cardiomyocytes at day 9 (FIG. 6L).
as §1, with “After 48 h media was changed to RPMI plus B27 minus insulin. The hiPSC line used in this study was developed by Dr. Linzhao Cheng, the Johns Hopkins University, and had was generated from a de-identified patient using an approved IRB protocol.” left out
Mouse embryos (E7.75) were dissected using forceps under a stereomicroscope (Zeiss) and regions of interest were dissociated and harvested using TrypLE. […] Single-cells were analyzed for RFP/GFP expression or sorted using a SH800 Cell sorter (Sony Biotechnologies). Live cells were analyzed for RFP and GFP expression and stained with antibodies targeting for the presence of appropriate markers. […] Data was analyzed using FlowJo software.

[3] = test system: ESC-derived cardiac spheroids (Hcn4-GFP; Tbx1-Cre; Ai9); assay: heart field specification: Hcn4-GFP+ and Tbx1-Cre, RFP+ CPCs in cardiac spheroids by FACS at day 5.5; conditions: increasing levels of the factor; day 5.5
Description: Next, an embryonic stem cell (ESC) line (ESCHcn4-GFP; Tbx1-Cre Ai9) was established from the mice to determine if heart field specification can be recapitulated in a PSC system. It was hypothesized that a 3D multicellular system would better resemble heart field development in vivo, as early development is a highly dynamic process that involves tissue-tissue interactions between multiple cell types. Since CPCs are specified during mid-late gastrulation 7, 8, multicellular 3D spheroids were generated with the PSCs and treated them with various concentrations of Activin A and Bmp4 to determine whether induction of the early mesoderm influences heart field specification (FIGS. 1C and 1D).
IPA utilizes an input gene list and a curated database of literature-derived pathways to infer which canonical pathways are most significant to the input data set. The analysis was focused on pathways related to ‘organism growth and development’. […] The effect of Bmp signals was evaluated during heart field specification. In order to minimize the possibility of influencing heart field cells after induction, all of the data were analyzed within 12 hs after the appearance of GFP^+/RFP^+ cells.
as §1
Mouse embryos (E7.75) were dissected using forceps under a stereomicroscope (Zeiss) and regions of interest were dissociated and harvested using TrypLE. Embryoid bodies (EBs) and cells were dissociated and harvested using TrypLE. Single-cells were analyzed for RFP/GFP expression or sorted using a SH800 Cell sorter (Sony Biotechnologies). Live cells were analyzed for RFP and GFP expression and stained with antibodies targeting for the presence of appropriate markers. […] Data was analyzed using FlowJo software.

[4] = test system: canonical Wnt activity; assay: Topflash luciferase assay; conditions: Bmp4 (1.25 ng/ml) alone; 88 h of differentiation
Method: To test this, canonical Wnt activity was measured with its readout Topflash.
For Tbx1 and Tbx5 knockdown experiments, Tbx1 and Tbx5 ON-TARGETplus SMARTpool siRNA or scrambled siRNA (Dharmacon/Thermo Fisher Scientic) was used at 5 nM for cell transfection. Cells were transfected with Lipofectamine LTX (Life Technologies) in single-cell suspensions. For TOP-flash luciferase assays, mESCs were transfected with Topflash constructs and Renilla constructs and analyzed as previously described 5.

- topflash activity [4]: increased
Substance: Bmp4: bone morphogenic protein (Bmp) 4, R&D Systems
- expression of FHF markers (tbx5, hcn4) [1]: increased expression
- expression of SHF markers (tbx1, fgf10) [1]: increased expression
- number of cTnT+ cardiomyocytes ([2]; 1.25 ng/ml Bmp4, day 9): > 30%
- difference in number of cTnT+ cardiomyocytes compared to 0.5 ng/ml Bmp4 ([2]; 1.25 ng/ml vs 0.5 ng/ml Bmp4, day 9): > 10 fold
- effect on cardiogenesis ([2]; varying/increasing concentrations, cTnT+ at day 9): profound effect
- induction of GFP+ cells (FHF) [3]: promoted induction
- induction of RFP+ cells (SHF) [3]: promoted induction
